ChEMBL document CHEMBL5104090, “Recent advances in the medicinal chemistry of carbonic anhydrase inhibitors” (Eur J Med Chem, 2021)

How the values were obtained:
Ca9-22 = test: cells; assay type: functional; conditions: Homo sapiens, time 48 hrs
Description: Cytotoxicity against human Ca9-22 cells assessed as cell growth inhibition measured after 48 hrs by MTT assay

Carbonic anhydrase 1 [1] = molecular target: T1, Carbonic anhydrase 1 (Homo sapiens, UniProt P00915)
Carbonic anhydrase 9 [2] = molecular target: T2, Carbonic anhydrase 9 (Homo sapiens, UniProt Q16790)
Carbonic anhydrase 12 = Carbonic anhydrase 12 (Homo sapiens, UniProt O43570)
Carbonic anhydrase 1 [3] = molecular target: T1, Carbonic anhydrase 1; remark: listed apart in the source
Carbonic anhydrase 2 = Carbonic anhydrase 2 (Homo sapiens, UniProt P00918)
Carbonic anhydrase 4 = Carbonic anhydrase 4 (Homo sapiens, UniProt P22748)
Carbonic anhydrase 9 [4] = molecular target: T2, Carbonic anhydrase 9; remark: listed apart in the source

Sequence of Carbonic anhydrase 12 (O43570 whole entry): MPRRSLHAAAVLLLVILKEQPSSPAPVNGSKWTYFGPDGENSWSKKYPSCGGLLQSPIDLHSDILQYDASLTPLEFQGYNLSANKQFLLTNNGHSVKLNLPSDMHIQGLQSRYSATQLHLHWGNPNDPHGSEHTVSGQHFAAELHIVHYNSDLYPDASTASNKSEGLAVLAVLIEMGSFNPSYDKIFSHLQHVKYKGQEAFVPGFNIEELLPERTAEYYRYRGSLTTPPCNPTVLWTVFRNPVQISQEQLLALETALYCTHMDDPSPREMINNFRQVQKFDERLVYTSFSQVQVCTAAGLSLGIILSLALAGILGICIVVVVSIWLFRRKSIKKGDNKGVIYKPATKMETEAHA
Sequence of Carbonic anhydrase 4 (P22748 whole entry): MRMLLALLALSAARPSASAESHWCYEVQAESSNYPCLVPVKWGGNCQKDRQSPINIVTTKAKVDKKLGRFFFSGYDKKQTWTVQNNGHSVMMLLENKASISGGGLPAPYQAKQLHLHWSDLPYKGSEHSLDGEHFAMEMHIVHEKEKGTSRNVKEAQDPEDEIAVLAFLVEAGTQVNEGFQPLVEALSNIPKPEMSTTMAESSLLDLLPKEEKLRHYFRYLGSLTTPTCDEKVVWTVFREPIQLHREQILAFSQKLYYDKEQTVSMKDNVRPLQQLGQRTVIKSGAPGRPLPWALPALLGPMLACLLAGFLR
T1 sequence (P00915 whole entry): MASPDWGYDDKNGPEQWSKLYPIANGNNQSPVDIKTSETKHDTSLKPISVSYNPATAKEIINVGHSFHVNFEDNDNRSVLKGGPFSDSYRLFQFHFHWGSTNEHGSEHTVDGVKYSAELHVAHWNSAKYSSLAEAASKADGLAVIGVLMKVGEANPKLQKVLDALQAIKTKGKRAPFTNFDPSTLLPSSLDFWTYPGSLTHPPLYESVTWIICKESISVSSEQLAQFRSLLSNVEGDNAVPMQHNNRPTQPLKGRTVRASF

Structure (SMILES)	Ki (Carbonic anhydrase 9 [2]) [nM]	Ki (Carbonic anhydrase 12) [nM]	further results
COc1ccc(C2CC(c3ccc(Cl)cc3)=NN2c2ccc(S(N)(=O)=O)cc2)c(OC)c1OC (configuration not stated)	> 44	> 9	CC50 (Ca9-22): 6300 nM; Ki (Carbonic anhydrase 1 [1]): > 230 nM
C/C(=N\O)c1ccc(N2C(=O)c3c(Br)c(Br)c(Br)c(Br)c3C2=O)cc1	169		
C/C(=N\NC(=O)c1ccc(S(N)(=O)=O)cc1)c1ccc(N2C(=O)c3ccc(C)cc3C2=O)cc1	17.3		
CCN1C(=O)/C(=N\NC(=O)CNc2ccc(S(N)(=O)=O)cc2)c2ccccc21		34.3	
CCN1C(=O)/C(=N\Nc2ccc(S(N)(=O)=O)cc2)c2ccccc21	23.6		
COc1ccc(C2CC(c3cccs3)=NN2c2ccc(S(N)(=O)=O)cc2)c(OC)c1OC (configuration not stated)	> 44	> 9	CC50 (Ca9-22): 6300 nM; Ki (Carbonic anhydrase 1 [1]): > 230 nM
COc1ccc2nc(S/C(=N/Nc3ccc(S(N)(=O)=O)cc3)C(C)=O)n(-c3ccccc3)c(=O)c2c1	1.6		
C/C(=N\NC(=O)c1ccc(S(N)(=O)=O)cc1)c1ccc(N2C(=O)c3ccc(C(C)(C)C)cc3C2=O)cc1	83.8		
O=S1(=O)C=Cc2cc(-n3nncc3-c3ccc(F)cc3)ccc2O1	6.9		
O=S1(=O)CC=Cc2ccc(-c3ccc(F)cc3)cc2O1			Ki (Carbonic anhydrase 1 [3]): > 100000 nM; Ki (Carbonic anhydrase 2): > 100000 nM
NS(=O)(=O)c1cccc(N/C=C/C(=O)c2ccc(Br)cc2)c1			Ki (Carbonic anhydrase 4): 6.5 nM
C/C(=N\NC(=O)c1ccc(S(N)(=O)=O)cc1)c1ccc(N2C(=O)C3C(C2=O)C2(Cl)C(Cl)=C(Cl)C3(Cl)C2(Cl)Cl)cc1 (configuration not stated)	17.3		
CCN1C(=O)/C(=N\c2ccc(S(N)(=O)=O)cc2)c2ccccc21	13.9	34.3	
COc1cc(OC)c(C2CC(c3ccccc3)=NN2c2ccc(S(N)(=O)=O)cc2)cc1OC (configuration not stated)	> 44	> 9	CC50 (Ca9-22): 6300 nM; Ki (Carbonic anhydrase 1 [1]): > 230 nM
NS(=O)(=O)c1cccc(N/C=C/C(=O)c2cccs2)c1			Ki (Carbonic anhydrase 4): 8.7 nM
COc1cc(C2CC(c3ccc(C(F)(F)F)cc3)=NN2c2ccc(S(N)(=O)=O)cc2)cc(OC)c1OC (configuration not stated)	> 44	> 9	CC50 (Ca9-22): 6300 nM; Ki (Carbonic anhydrase 1 [1]): > 230 nM
C/C(=N\NC(=O)c1ccc(S(N)(=O)=O)cc1)c1ccc(N2C(=O)c3ccc(C(=O)O)cc3C2=O)cc1	17.3		
COc1cc(C2CC(c3ccccc3)=NN2c2ccc(S(N)(=O)=O)cc2)cc(OC)c1OC (configuration not stated)	> 44	> 9	CC50 (Ca9-22): 6300 nM; Ki (Carbonic anhydrase 1 [1]): > 230 nM
COc1cc(OC)c(C2CC(c3ccc(C(F)(F)F)cc3)=NN2c2ccc(S(N)(=O)=O)cc2)cc1OC (configuration not stated)	> 44	> 9	CC50 (Ca9-22): 6300 nM; Ki (Carbonic anhydrase 1 [1]): > 230 nM
CN1C(=O)/C(=N\c2ccc(S(N)(=O)=O)cc2)c2ccccc21	13.9	34.3	
NS(=O)(=O)c1cccc(N/C=C/C(=O)c2ccc3ccccc3c2)c1			Ki (Carbonic anhydrase 4): 6.5 nM
COc1ccc(C2CC(c3ccccc3)=NN2c2ccc(S(N)(=O)=O)cc2)c(OC)c1OC (configuration not stated)	> 44	> 9	CC50 (Ca9-22): 6300 nM; Ki (Carbonic anhydrase 1 [1]): > 230 nM
C/C(=N\NC(=O)c1ccc(S(N)(=O)=O)cc1)c1ccc(N2C(=O)C3CC=CCC3C2=O)cc1 (configuration not stated)	17.3		
C/C(=N\NC(=O)c1ccc(S(N)(=O)=O)cc1)c1ccc(N2C(=O)c3ccccc3C2=O)cc1	17.3		
COc1ccc(C2CC(c3ccc(C(F)(F)F)cc3)=NN2c2ccc(S(N)(=O)=O)cc2)c(OC)c1OC (configuration not stated)	> 44	> 9	CC50 (Ca9-22): 6300 nM; Ki (Carbonic anhydrase 1 [1]): > 230 nM
Cc1ccc(-c2cc(C(F)(F)F)nn2-c2ccc(S(N)(=O)=O)cc2)cc1 [CELECOXIB]	14.8		
C/C(=N\O)c1ccc(N2C(=O)c3ccc(C(=O)O)cc3C2=O)cc1	169		

Structure (SMILES)	Ki (Carbonic anhydrase 9 [2]) [nM]	Ki (Carbonic anhydrase 12) [nM]	further results
CCOC(=O)c1ccc(-c2cccc3c2OS(=O)(=O)CC=C3)cc1			Ki (Carbonic anhydrase 1 [3]): > 100000 nM; Ki (Carbonic anhydrase 2): > 100000 nM
C/C(=N\O)c1ccc(N2C(=O)C3C(C2=O)C2(Cl)C(Cl)=C(Cl)C3(Cl)C2(Cl)Cl)cc1 (configuration not stated)	169		
NS(=O)(=O)c1cccc(N/C=C/C(=O)c2ccco2)c1			Ki (Carbonic anhydrase 4): 64.5 nM
NS(=O)(=O)c1ccc(CCNC(=O)CSc2nc3ccc(I)cc3c(=O)n2Cc2ccccc2)cc1		5.2	
Cc1ccc(C(=O)/C=C/Nc2ccc(S(N)(=O)=O)cc2)cc1			Ki (Carbonic anhydrase 9 [4]): 0.21 nM
COc1cc(OC)c(C2CC(c3ccc(F)cc3)=NN2c2ccc(S(N)(=O)=O)cc2)cc1OC (configuration not stated)	> 44	> 9	CC50 (Ca9-22): 6300 nM; Ki (Carbonic anhydrase 1 [1]): > 230 nM
Cc1ccc(C(=O)/C=C/Nc2cccc(S(N)(=O)=O)c2)cc1			Ki (Carbonic anhydrase 4): 6.5 nM
O=S1(=O)CC=Cc2cc(-c3ccccc3)ccc2O1			Ki (Carbonic anhydrase 1 [3]): > 100000 nM; Ki (Carbonic anhydrase 2): > 100000 nM
C/C(=N\O)c1ccc(N2C(=O)c3ccccc3C2=O)cc1	169		
COc1cc(C2CC(c3ccc(Br)cc3)=NN2c2ccc(S(N)(=O)=O)cc2)cc(OC)c1OC (configuration not stated)	> 44	> 9	CC50 (Ca9-22): 6300 nM; Ki (Carbonic anhydrase 1 [1]): > 230 nM
C=CCN1C(=O)/C(=N\Nc2ccc(S(N)(=O)=O)cc2)c2ccccc21		34.3	
CC(C)(C)OC(=O)C[C@H](Cc1ccccc1)C(=O)CCC(=O)NCc1ccc(S(N)(=O)=O)cc1	1.8		
O=S1(=O)CC=Cc2ccc(-c3ccccc3)cc2O1			Ki (Carbonic anhydrase 1 [3]): > 100000 nM; Ki (Carbonic anhydrase 2): > 100000 nM
COc1ccc(-c2ccc3c(c2)C=CCS(=O)(=O)O3)cc1			Ki (Carbonic anhydrase 1 [3]): > 100000 nM; Ki (Carbonic anhydrase 2): > 100000 nM
O=S1(=O)CC=Cc2ccc(-c3ccc(C(F)(F)F)cc3)cc2O1			Ki (Carbonic anhydrase 1 [3]): > 100000 nM; Ki (Carbonic anhydrase 2): > 100000 nM
C/C(=N\O)c1ccc(N2C(=O)c3ccc(C)cc3C2=O)cc1	169		
C=CCN1C(=O)/C(=N\c2ccc(S(N)(=O)=O)cc2)c2ccccc21	13.9	34.3	
COc1cc(OC)c(C2CC(c3ccc(Br)cc3)=NN2c2ccc(S(N)(=O)=O)cc2)cc1OC (configuration not stated)	> 44	> 9	CC50 (Ca9-22): 6300 nM; Ki (Carbonic anhydrase 1 [1]): > 230 nM
O=S1(=O)CC=Cc2ccc(Br)cc2O1			Ki (Carbonic anhydrase 1 [3]): > 100000 nM; Ki (Carbonic anhydrase 2): > 100000 nM
CN1C(=O)/C(=N\NC(=O)CNc2ccc(S(N)(=O)=O)cc2)c2ccccc21	13.9	34.3	
C/C(=N\O)c1ccc(N2C(=O)c3cc(Cl)c(Cl)cc3C2=O)cc1	169		
COc1ccc(C(=O)N2C(=O)/C(=N\NC(=O)CNc3ccc(S(N)(=O)=O)cc3)c3ccccc32)cc1		22.3	
CC(C)[C@@H](CC(=O)[C@@H](C)CC(=O)OCc1ccccc1)C(=O)NCc1ccc(S(N)(=O)=O)cc1		7.4	
O=S1(=O)CC=Cc2cccc(-c3ccccc3)c2O1			Ki (Carbonic anhydrase 1 [3]): > 100000 nM; Ki (Carbonic anhydrase 2): > 100000 nM
O=S1(=O)CC=Cc2cc(I)ccc2O1			Ki (Carbonic anhydrase 1 [3]): > 100000 nM; Ki (Carbonic anhydrase 2): > 100000 nM
C=CCN1C(=O)/C(=N\NC(=O)CNc2ccc(S(N)(=O)=O)cc2)c2ccccc21	13.9	34.3	
O=S1(=O)CC=Cc2cccc(-c3ccc(F)cc3)c2O1			Ki (Carbonic anhydrase 1 [3]): > 100000 nM; Ki (Carbonic anhydrase 2): > 100000 nM

Structure (SMILES)	Ki (Carbonic anhydrase 9 [2]) [nM]	Ki (Carbonic anhydrase 12) [nM]	further results
O=S1(=O)CC=Cc2cc(-c3ccc(F)cc3)ccc2O1			Ki (Carbonic anhydrase 1 [3]): > 100000 nM; Ki (Carbonic anhydrase 2): > 100000 nM
COc1ccc(-c2ccc3c(c2)OS(=O)(=O)CC=C3)cc1			Ki (Carbonic anhydrase 1 [3]): > 100000 nM; Ki (Carbonic anhydrase 2): > 100000 nM
COc1ccc(C2CC(c3ccc(Br)cc3)=NN2c2ccc(S(N)(=O)=O)cc2)c(OC)c1OC (configuration not stated)	> 44	> 9	CC50 (Ca9-22): 6300 nM; Ki (Carbonic anhydrase 1 [1]): > 230 nM
NS(=O)(=O)c1ccc(CCn2c(SCc3ccc(F)cc3)nc3ccccc3c2=O)cc1			Ki (Carbonic anhydrase 9 [4]): 19.3 nM
C/C(=N\O)c1ccc(N2C(=O)C3CC=CCC3C2=O)cc1 (configuration not stated)	169		
NS(=O)(=O)c1ccc(N/C=C/C(=O)c2ccccc2)cc1			Ki (Carbonic anhydrase 9 [4]): 0.21 nM
COc1cc(C2CC(c3ccc(Cl)cc3)=NN2c2ccc(S(N)(=O)=O)cc2)cc(OC)c1OC (configuration not stated)	> 44	> 9	CC50 (Ca9-22): 6300 nM; Ki (Carbonic anhydrase 1 [1]): > 230 nM
NS(=O)(=O)c1ccc(N/N=C2\C(=O)N(Cc3ccccc3)c3ccccc32)cc1	13.9		
NS(=O)(=O)c1cccc(-c2nc(-c3cccnc3)no2)c1	1.2		
O=S1(=O)CC=Cc2cc(-c3ccc(C(F)(F)F)cc3)ccc2O1			Ki (Carbonic anhydrase 1 [3]): > 100000 nM; Ki (Carbonic anhydrase 2): > 100000 nM
COc1cc(OC)c(C2CC(c3ccc(Cl)cc3)=NN2c2ccc(S(N)(=O)=O)cc2)cc1OC (configuration not stated)	> 44	> 9	CC50 (Ca9-22): 6300 nM; Ki (Carbonic anhydrase 1 [1]): > 230 nM
NS(=O)(=O)c1ccc(/N=C2\C(=O)N(Cc3ccccc3)c3ccccc32)cc1	13.9	34.3	
C/C(=N\O)c1ccc(N2C(=O)c3ccc(C(C)(C)C)cc3C2=O)cc1	169		
C/C(=N\O)c1ccc(N2C(=O)c3c(Cl)c(Cl)c(Cl)c(Cl)c3C2=O)cc1	169		
CN1C(=O)/C(=N\Nc2ccc(S(N)(=O)=O)cc2)c2ccccc21	13.9		
COc1ccc(-c2cccc3c2OS(=O)(=O)CC=C3)cc1			Ki (Carbonic anhydrase 1 [3]): > 100000 nM; Ki (Carbonic anhydrase 2): > 100000 nM
NS(=O)(=O)c1ccc(NCC(=O)N/N=C2\C(=O)N(C(=O)c3ccccc3)c3ccccc32)cc1	65.3		
NS(=O)(=O)c1ccc(NCC(=O)N/N=C2\C(=O)Nc3ccccc32)cc1		34.3	
C/C(=N\NC(=O)c1ccc(S(N)(=O)=O)cc1)c1ccc(N2C(=O)c3c(Br)c(Br)c(Br)c(Br)c3C2=O)cc1	17.3		
O=S1(=O)CC=Cc2cccc(-c3ccc(C(F)(F)F)cc3)c2O1			Ki (Carbonic anhydrase 1 [3]): > 100000 nM; Ki (Carbonic anhydrase 2): > 100000 nM
CCOC(=O)c1ccc(-c2ccc3c(c2)C=CCS(=O)(=O)O3)cc1			Ki (Carbonic anhydrase 1 [3]): > 100000 nM; Ki (Carbonic anhydrase 2): > 100000 nM
CCOC(=O)c1ccc(-c2ccc3c(c2)OS(=O)(=O)CC=C3)cc1			Ki (Carbonic anhydrase 1 [3]): > 100000 nM; Ki (Carbonic anhydrase 2): > 100000 nM
COc1ccc(C2CC(c3ccc(F)cc3)=NN2c2ccc(S(N)(=O)=O)cc2)c(OC)c1OC (configuration not stated)	> 44	> 9	CC50 (Ca9-22): 6300 nM; Ki (Carbonic anhydrase 1 [1]): > 230 nM
C/C(=N\NC(=O)c1ccc(S(N)(=O)=O)cc1)c1ccc(N2C(=O)c3cc(Cl)c(Cl)cc3C2=O)cc1	169		
O=S1(=O)CC=Cc2cccc(Br)c2O1			Ki (Carbonic anhydrase 1 [3]): > 100000 nM; Ki (Carbonic anhydrase 2): > 100000 nM
COc1cc(OC)c(C2CC(c3cccs3)=NN2c2ccc(S(N)(=O)=O)cc2)cc1OC (configuration not stated)	> 44	> 9	CC50 (Ca9-22): 6300 nM; Ki (Carbonic anhydrase 1 [1]): > 230 nM
